Laboratory results reported in patent US20060057669A1, “Inactive transcription factor tif-ia and uses thereof” (priority 2002, published 2006).

System: TIF-IA
Experiment: In vitro transcription assay of TIF-IA purified from treated HEK293T cells, in nuclear extracts from rapamycin-treated cells
Format: biochemical
Conditions: 1 hr; okadaic acid 1 μM or calyculin A 50 nM with rapamycin 20 nM
Description: Nuclear extracts from rapamycin-treated cells were supplemented with 30 and 90 ng of TIF-IA that was immunopurified from HEK293T cells co-expressing FLAG-tagged TIF-IA and either GST/myc-tagged wild-type S6K1 (lanes 2-5) or S6K1E389ANAC (lanes 6-9).
B) Transcriptional activity of TIF-IA mutants in vitro. TIF-IA was purified from cells that were mock-treated (lanes 2, 3), or treated for 1 hr with either okadaic acid (1 μM), rapamycin (20 nM), calyculin A (50 nM), or both okadaic acid or calyculin A and rapamycin as indicated. 30 ng (even numbers) and 90 ng (odd numbers except 1) of TIF-IA were assayed for their capability to restore transcription of nuclear extracts from rapamycin-treated cells.
If S6K1 or S6K1-activated kinases were the only pathways that target TIF-IA and mediate mTOR-dependent regulation of Pol I transcription, then rapamycin should not inactivate TIF-IA if a rapamycin-resistant S6K1 mutant was co-expressed. This, however, was not the case.
Two mechanisms could be responsible for the decreased phosphorylation of S44 after rapamycin treatment, e.g., inhibition of the respective kinase or activation of a counteracting phosphatase. […] If PP2A dephosphorylates and thus inactivates TIF-IA, inhibition of PP2A should protect TIF-IA from inactivation by rapamycin. […]

| Structure (SMILES) | effect on inactivation of TIF-IA by rapamycin |
| --- | --- |
| COC[C@@H]([C@H](O)[C@H](O)C(=O)NCC[C@H](C)c1nc(/C=C/C[C@@H]2O[C@]3(C[C@@H](O)[C@@H]2C)O[C@H]([C@H](C[C@H](O)[C@H](C)[C@H](O)[C@H](C)/C=C(C)/C(C)=C/C=C/C(C)=C\C#N)OC)[C@H](OP(=O)(O)O)C3(C)C)co1)N(C)C [calyculin A] | prevented inactivation of TIF-IA by rapamycin |
| C=C1[C@@H](O)[C@@H]2O[C@]3(CC[C@H](/C=C/[C@@H](C)[C@@H]4CC(C)=C[C@@]5(O[C@H](C[C@@](C)(O)C(=O)O)CC[C@H]5O)O4)O3)CC[C@H]2O[C@@H]1[C@@H](O)C[C@H](C)[C@H]1O[C@@]2(CCCCO2)CC[C@H]1C [okadaic acid] | prevented inactivation of TIF-IA by rapamycin |
